Columns and labels:
Assay type in all cases: cell-based, human
[1] = test system: PECAM-1 (CD31); assay: Flow cytometry of PECAM-1 expression on HCEC; details: TNF-α control, after 12 hr
Procedure: Flow cytometry was used to assess the upregulation of PECAM-1 (CD31), and the integrin molecules β1 (CD29), β2 (CD18), β3 (CD61), β4 (CD104), α1 (CD49a), α2 (CD49b), α3 (CD49c), α4 (CD 49d), and αv (CD51). Human corneal epithelial cells were cultured as above and treated with CAP37 (0-2000 ng/ml) for 0-72 hr. A corresponding culture was left untreated at each time point. Following treatment with CAP37, cells were detached with 0.25% trypsin in 1 mM EDTA (pH 7.4, FISHER SCIENTIFIC, Pittsburgh, Pa.), washed twice in PBS and fixed with 0.125% paraformaldehyde (J.T. BAKER, Phillipsburg, N.J.) overnight at 4° C. The cells were washed in PBS and then incubated in 0.5% normal goat serum and 0.5% bovine serum albumin (BSA) in PBS for 30 min to block non-specific binding sites. Cells were incubated in the primary antibody (at concentrations described below) at 4° C. for 1 hr followed by the secondary antibody (FITC-goat anti-mouse IgG, PHARMINGEN, San Diego, Calif.) at 0.5 μg/10^6 cells and incubated at 4° C. for 30 min. The isotype control for these studies was FITC-labeled mouse isotype IgG1 (PHARMINGEN). The cells were analyzed by flow cytometry (FACS Calibur, BECTON DICKINSON, San Jose, Calif.). At least ten thousand cells were analyzed for each sample. […]

[2] = test system: CAP37 protein in HCEC; assay: Immunocytochemical detection of CAP37 protein induction in HCEC; details: for Time of maximum CAP37 protein induction: HCEC
Procedure: (§1) For immunocytochemical analysis of HCEC and stromal keratocytes in culture, the cells were cultured on coverslips (CORNING COSTAR, Acton, Mass.) placed within 24-well tissue culture plates (CORNING COSTAR) until they reached 70% confluence and immunostained for CAP37 as described above except for the following changes. Cells were fixed in formol-acetone, pH 7.4 for 60 s at 4° C. (13) and were stained using the mouse anti-human CAP37 antiserum (1:500 dilution).
(§2) To determine if pro-inflammatory cytokines could induce CAP37 in HCEC and keratocytes we treated these cell cultures with TNF-α (0-10 ng/ml, Boehringer-Mannheim, Indianapolis, Ind.) and IL-1β (0-20 ng/ml, ENDOGEN, Woburn, Mass.) for 0-24 hr and assayed the cells immunocytochemically for the presence of CAP37 protein as described above. Untreated cell cultures were included for each test sample. In addition to protein detection, upregulation of CAP37 mRNA in response to TNF-α and IL-1β was measured by RT-PCR as described below.

[3] = test system: CAP37 mRNA in HCEC; assay: RT-PCR of CAP37 mRNA induction in HCEC
Procedure: as §2
Cultured HCEC were treated with 5 ng/ml TNF-α and 10 ng/ml IL-1β for 0-8 hr at 37° C. Total cellular RNA was isolated from untreated and treated HCEC according to vendor specifications (TRIzol™, Gibco BRL). After reverse-transcription of 5 μg of total RNA by random oligonucleotide priming (hexanucleotide mix, BOEHRINGER-MANNHEIM, GmbH, Germany), the resulting single stranded cDNA was amplified by PCR (PERKIN ELMER 2400 thermocycler, Norwalk, Conn.) using CAP37 specific primers ([…] (SEQ ID NO:9) and […] (SEQ ID NO:10)) designed for a 597 bp internal fragment of HL60-CAP37 (34). The reaction conditions for reverse transcription were 80 units of RNAse inhibitor (SIGMA), 8 μl of 5× strand buffer, 2 μl of random hexanucleotide mix, 1 mM dNTPs (GIBCO BRL), 10 mM DTT (GIBCO BRL), and 400 units of M-MLV RT (GIBCO BRL) in a total volume of […]. The reaction mix was incubated at 37° C. for 50 min followed by incubation at 70° C. for 15 min. The PCR mix (1.5 mM MgCl2, 0.2 mM dNTPs, 1.26 μM of each primer and 1 unit Taq polymerase, GIBCO BRL) was amplified for 30 cycles. Amplified DNA fragments were separated by electrophoresis on a 1% agarose gel and visualized by exposure to UV after ethidium bromide (0.5 μg/ml) staining. To assess the integrity of the cDNA, primers for human β-actin were used.

[4] = test system: CAP37 protein in stromal keratocytes; assay: Immunocytochemical detection of CAP37 protein induction in stromal keratocytes
Procedure: as §1, §2

Substance	Duration of effect on PECAM-1 expression [1]	Time of maximum CAP37 protein induction [2] [h]	Earliest detection of CAP37 protein ([2]; HCEC treated with TNF-α) [min]	Earliest expression of CAP37 mRNA ([3]; TNF-α 5 ng/ml) [min]	Time of maximum CAP37 mRNA levels ([3]; TNF-α 5 ng/ml, reduced by 4 hr)	Induction of CAP37 protein [4]	Time point at which expression of CAP37 protein was observed ([2]; HCEC treated with IL-1β) [h]	Initial expression of CAP37 mRNA post stimulation ([3]; IL-1β 10 ng/ml) [h]	CAP37 mRNA ([3]; IL-1β 10 ng/ml, 6 hr)
TNF-α	more sustained, lasting until 24 hr	24	60	15	between 30 min and 2 hr	showed the induction of CAP37 protein			
IL-1β: proinflammatory cytokine used to induce CAP37		24				showed the induction of CAP37 protein	4	1	can be detected

Reference: patent US7893027B2, “Treatment of ocular wounds and ulcers” (The Board of Regents of the University of Oklahoma, priority 2002, dated 2011)
